# Results reported in PubChem BioAssay (NCI).
#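 Results reflect a 48-hour exposure of cells in 96-well plates to compound at five concentrations. TGI is the concentration that stops growth completely.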
# Legend:
# Assay in all cases: NCI-60 cell line screen, 48 h
# 786-0 renal = system: 786-0 renal
# A498 renal = system: A498 renal
# A549 NSCLC = system: A549 NSCLC
# ACHN renal = system: ACHN renal
# BT-549 breast = system: BT-549 breast
# CAKI-1 renal = system: CAKI-1 renal
# CCRF-CEM leukemia = system: CCRF-CEM leukemia
# DU-145 prostate = system: DU-145 prostate
# EKVX NSCLC = system: EKVX NSCLC
# HCT-116 colon = system: HCT-116 colon
# HCT-15 colon = system: HCT-15 colon
# HL-60(TB) leukemia = system: HL-60(TB) leukemia
# HOP-62 NSCLC = system: HOP-62 NSCLC
# HOP-92 NSCLC = system: HOP-92 NSCLC
# HT29 colon = system: HT29 colon
# IGROV1 ovarian = system: IGROV1 ovarian
# K-562 leukemia = system: K-562 leukemia
# KM12 colon = system: KM12 colon
# LOX IMVI melanoma = system: LOX IMVI melanoma
# M14 melanoma = system: M14 melanoma
# MALME-3M melanoma = system: MALME-3M melanoma
# MDA-MB-231 breast = system: MDA-MB-231 breast
# MDA-MB-435 = system: MDA-MB-435
# MDA-N = system: MDA-N
# MOLT-4 leukemia = system: MOLT-4 leukemia
# NCI-H226 lung = system: NCI-H226 lung
# NCI-H23 lung = system: NCI-H23 lung
# NCI-H460 lung = system: NCI-H460 lung
# NCI-H522 lung = system: NCI-H522 lung
# NCI/ADR-RES ovarian = system: NCI/ADR-RES ovarian
# OVCAR-3 ovarian = system: OVCAR-3 ovarian
# OVCAR-4 ovarian = system: OVCAR-4 ovarian
# OVCAR-5 ovarian = system: OVCAR-5 ovarian
# OVCAR-8 ovarian = system: OVCAR-8 ovarian
# PC-3 prostate = system: PC-3 prostate
# RPMI-8226 leukemia = system: RPMI-8226 leukemia
# RXF 393 renal = system: RXF 393 renal
# SF-268 CNS = system: SF-268 CNS
# SF-295 CNS = system: SF-295 CNS
# SK-MEL-2 melanoma = system: SK-MEL-2 melanoma
# SK-MEL-28 melanoma = system: SK-MEL-28 melanoma
# SK-MEL-5 melanoma = system: SK-MEL-5 melanoma
# SN12C renal = system: SN12C renal
# SNB-19 CNS = system: SNB-19 CNS
# SNB-75 CNS = system: SNB-75 CNS
# SR leukemia = system: SR leukemia
# SW-620 colon = system: SW-620 colon
# T-47D breast = system: T-47D breast
# TK-10 renal = system: TK-10 renal
# U251 CNS = system: U251 CNS
# UACC-257 melanoma = system: UACC-257 melanoma
# UACC-62 melanoma = system: UACC-62 melanoma
# UO-31 renal = system: UO-31 renal
# COLO 205 colon = system: COLO 205 colon
# HCC-2998 colon = system: HCC-2998 colon
# HS 578T breast = system: HS 578T breast
# MCF7 breast = system: MCF7 breast
# SF-539 CNS = system: SF-539 CNS
# SK-OV-3 ovarian = system: SK-OV-3 ovarian
structure (smiles),measurement,setting,value
CC(C)(SCc1ccccc1)C(N)C(=O)O (stereo not drawn),TGI,786-0 renal,> 100 µM
same,TGI,A498 renal,> 100 µM
same,TGI,A549 NSCLC,> 100 µM
same,TGI,ACHN renal,> 100 µM
same,TGI,BT-549 breast,> 100 µM
same,TGI,CAKI-1 renal,> 100 µM
same,TGI,CCRF-CEM leukemia,> 100 µM
same,TGI,DU-145 prostate,> 100 µM
same,TGI,EKVX NSCLC,> 100 µM
same,TGI,HCT-116 colon,> 100 µM
same,TGI,HCT-15 colon,> 100 µM
same,TGI,HL-60(TB) leukemia,> 100 µM
same,TGI,HOP-62 NSCLC,> 100 µM
same,TGI,HOP-92 NSCLC,> 100 µM
same,TGI,HT29 colon,> 100 µM
same,TGI,IGROV1 ovarian,> 100 µM
same,TGI,K-562 leukemia,> 100 µM
same,TGI,KM12 colon,> 100 µM
same,TGI,LOX IMVI melanoma,> 100 µM
same,TGI,M14 melanoma,> 100 µM
same,TGI,MALME-3M melanoma,> 100 µM
same,TGI,MDA-MB-231 breast,> 100 µM
same,TGI,MDA-MB-435,> 100 µM
same,TGI,MDA-N,> 100 µM
same,TGI,MOLT-4 leukemia,> 100 µM
same,TGI,NCI-H226 lung,> 100 µM
same,TGI,NCI-H23 lung,> 100 µM
same,TGI,NCI-H460 lung,> 100 µM
same,TGI,NCI-H522 lung,> 100 µM
same,TGI,NCI/ADR-RES ovarian,> 100 µM
same,TGI,OVCAR-3 ovarian,> 100 µM
same,TGI,OVCAR-4 ovarian,> 100 µM
same,TGI,OVCAR-5 ovarian,> 100 µM
same,TGI,OVCAR-8 ovarian,> 100 µM
same,TGI,PC-3 prostate,> 100 µM
same,TGI,RPMI-8226 leukemia,> 100 µM
same,TGI,RXF 393 renal,> 100 µM
same,TGI,SF-268 CNS,> 100 µM
same,TGI,SF-295 CNS,> 100 µM
same,TGI,SK-MEL-2 melanoma,> 100 µM
same,TGI,SK-MEL-28 melanoma,> 100 µM
same,TGI,SK-MEL-5 melanoma,> 100 µM
same,TGI,SN12C renal,> 100 µM
same,TGI,SNB-19 CNS,> 100 µM
same,TGI,SNB-75 CNS,> 100 µM
same,TGI,SR leukemia,> 100 µM
same,TGI,SW-620 colon,> 100 µM
same,TGI,T-47D breast,> 100 µM
same,TGI,TK-10 renal,> 100 µM
same,TGI,U251 CNS,> 100 µM
same,TGI,UACC-257 melanoma,> 100 µM
same,TGI,UACC-62 melanoma,> 100 µM
same,TGI,UO-31 renal,> 100 µM
N#CCCN(CCC#N)c1ccc(C(N=Nc2ccc(Cl)cc2)=Nc2ccc(Cl)cc2)cc1,TGI,786-0 renal,34.7 µM
same,TGI,A498 renal,43.3 µM
same,TGI,A549 NSCLC,41 µM
same,TGI,ACHN renal,34 µM
same,TGI,BT-549 breast,36.3 µM
same,TGI,CAKI-1 renal,45.2 µM
same,TGI,CCRF-CEM leukemia,65.3 µM
same,TGI,COLO 205 colon,31.9 µM
same,TGI,DU-145 prostate,30.3 µM
same,TGI,EKVX NSCLC,85.3 µM
same,TGI,HCC-2998 colon,27.1 µM
same,TGI,HCT-116 colon,36.5 µM
same,TGI,HCT-15 colon,23.7 µM
same,TGI,HOP-62 NSCLC,50.8 µM
same,TGI,HOP-92 NSCLC,38.8 µM
same,TGI,HS 578T breast,35.2 µM
same,TGI,HT29 colon,44.6 µM
same,TGI,IGROV1 ovarian,28.1 µM
same,TGI,K-562 leukemia,> 100 µM
same,TGI,KM12 colon,44.1 µM
same,TGI,M14 melanoma,58.7 µM
same,TGI,MCF7 breast,24.7 µM
same,TGI,MDA-MB-231 breast,42 µM
same,TGI,MDA-MB-435,88.3 µM
same,TGI,MDA-N,40.8 µM
same,TGI,MOLT-4 leukemia,87.8 µM
same,TGI,NCI-H226 lung,36.7 µM
same,TGI,NCI-H23 lung,41.8 µM
same,TGI,NCI-H460 lung,29.2 µM
same,TGI,NCI-H522 lung,32.5 µM
same,TGI,NCI/ADR-RES ovarian,38 µM
same,TGI,OVCAR-3 ovarian,36.9 µM
same,TGI,OVCAR-4 ovarian,81.2 µM
same,TGI,OVCAR-5 ovarian,43.8 µM
same,TGI,OVCAR-8 ovarian,31.4 µM
same,TGI,PC-3 prostate,32.1 µM
same,TGI,RPMI-8226 leukemia,> 100 µM
same,TGI,RXF 393 renal,29.1 µM
same,TGI,SF-268 CNS,33.4 µM
same,TGI,SF-295 CNS,29.2 µM
same,TGI,SF-539 CNS,38.6 µM
same,TGI,SK-MEL-2 melanoma,25 µM
same,TGI,SK-MEL-28 melanoma,> 100 µM
same,TGI,SK-MEL-5 melanoma,24.7 µM
same,TGI,SK-OV-3 ovarian,> 100 µM
same,TGI,SN12C renal,33.5 µM
same,TGI,SNB-19 CNS,53.3 µM
same,TGI,SNB-75 CNS,45.6 µM
same,TGI,SR leukemia,> 100 µM
same,TGI,SW-620 colon,34.3 µM
same,TGI,T-47D breast,23.9 µM
same,TGI,TK-10 renal,33.5 µM
same,TGI,U251 CNS,33.2 µM
same,TGI,UACC-257 melanoma,29.7 µM
same,TGI,UACC-62 melanoma,30.2 µM
same,TGI,UO-31 renal,29.4 µM
CC(=O)N(C(C)=O)n1nc2c(n1)C(=O)c1ccccc1C2=O,TGI,786-0 renal,> 100 µM
same,TGI,A498 renal,> 100 µM
same,TGI,A549 NSCLC,> 100 µM
same,TGI,ACHN renal,> 100 µM
same,TGI,BT-549 breast,> 100 µM
same,TGI,CAKI-1 renal,> 100 µM
same,TGI,CCRF-CEM leukemia,> 100 µM
same,TGI,COLO 205 colon,> 100 µM
same,TGI,DU-145 prostate,> 100 µM
same,TGI,EKVX NSCLC,> 100 µM
same,TGI,HCT-116 colon,> 100 µM
same,TGI,HCT-15 colon,> 100 µM
same,TGI,HL-60(TB) leukemia,> 100 µM
same,TGI,HOP-62 NSCLC,> 100 µM
same,TGI,HOP-92 NSCLC,> 100 µM
same,TGI,HS 578T breast,> 100 µM
same,TGI,HT29 colon,> 100 µM
same,TGI,IGROV1 ovarian,> 100 µM
same,TGI,KM12 colon,> 100 µM
same,TGI,LOX IMVI melanoma,> 100 µM
same,TGI,M14 melanoma,> 100 µM
same,TGI,MALME-3M melanoma,> 100 µM
same,TGI,MCF7 breast,> 100 µM
same,TGI,MDA-MB-231 breast,> 100 µM
same,TGI,MDA-MB-435,> 100 µM
same,TGI,MDA-N,> 100 µM
same,TGI,MOLT-4 leukemia,> 100 µM
same,TGI,NCI-H23 lung,> 100 µM
same,TGI,NCI-H460 lung,> 100 µM
same,TGI,NCI-H522 lung,> 100 µM
same,TGI,NCI/ADR-RES ovarian,> 100 µM
same,TGI,OVCAR-3 ovarian,> 100 µM
same,TGI,OVCAR-4 ovarian,> 100 µM
same,TGI,OVCAR-5 ovarian,> 100 µM
same,TGI,OVCAR-8 ovarian,> 100 µM
same,TGI,PC-3 prostate,> 100 µM
same,TGI,RPMI-8226 leukemia,> 100 µM
same,TGI,RXF 393 renal,> 100 µM
same,TGI,SF-268 CNS,> 100 µM
same,TGI,SF-295 CNS,> 100 µM
same,TGI,SF-539 CNS,> 100 µM
same,TGI,SK-MEL-2 melanoma,> 100 µM
same,TGI,SK-MEL-28 melanoma,> 100 µM
same,TGI,SK-MEL-5 melanoma,> 100 µM
same,TGI,SK-OV-3 ovarian,> 100 µM
same,TGI,SN12C renal,> 100 µM
same,TGI,SNB-19 CNS,> 100 µM
same,TGI,SW-620 colon,> 100 µM
same,TGI,T-47D breast,> 100 µM
same,TGI,TK-10 renal,> 100 µM
same,TGI,U251 CNS,> 100 µM
same,TGI,UACC-257 melanoma,> 100 µM
same,TGI,UACC-62 melanoma,> 100 µM
same,TGI,UO-31 renal,> 100 µM
